The text below walks through data of ChEMBL document CHEMBL1795331, “Synthesis and biological activity of optically active NCL-1, a lysine-specific demethylase 1 selective inhibitor” (Bioorg Med Chem, 2011).

Structures are written as SMILES.

One series in a line: in vitro. As to conditions: human, HEK293 cells.
In the next series the test system is HeLa. Briefly: cells. The conditions noted are these: Homo sapiens, 48 h.
Another series concerns SH-SY5Y. Briefly: cells. As to conditions: Homo sapiens, 48 h.

Description for HeLa: Growth inhibition of human HeLa cells after 48 hrs by MTT assay
Description for SH-SY5Y: Growth inhibition of human SH-SY5Y cells after 48 hrs by MTT assay
Description for in vitro: Growth inhibition of human HEK293 cells after 48 hrs by MTT assay

The term GI50 denotes the concentration that inhibits growth by half. A lower GI50 goes with greater sensitivity of the cells. `N[C@H]1C[C@@H]1c1cccc(OCC[C@H](NC(=O)c2ccccc2)C(=O)NCc2ccccc2)c1`: the GI50 at 48 h in the series “in vitro” was 17 µM. Moreover, the GI50 in the series on HeLa came out at 20 µM; in the series on SH-SY5Y, 9 µM.
Taken in the same sequence, the figures for `N[C@@H]1C[C@H]1c1cccc(OCC[C@H](NC(=O)c2ccccc2)C(=O)NCc2ccccc2)c1` were 25 µM, 74 µM and 9 µM.
